In patent publication US20250326732A1 (Pretzel Therapeutics, Inc., priority 2021, published 2025):

Molecular target: POLRMT (Homo sapiens (Human), UniProt O00411)
Test: homogeneous TR-FRET assay of mitochondrial transcription (inhibition of POLRMT)
Assay type: biochemical
Conditions: 7.5 nM POLRMT, 15 nM TFB2M, 30 nM TFAM, 0.5 nM DNA template, 500 μM NTPs, 37° C. for 60 minutes
Method in brief: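 POLRMT transcription from linearized pUC-LSP DNA template; RNA product detected by hybridization of ATTO647 acceptor (1 nM) and biotinylated donor (3 nM) probes plus Europium-streptavidin. Reaction stopped with EDTA/700 mM NaCl buffer, pH 7.5.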

Chain of POLRMT (O00411 42-1230): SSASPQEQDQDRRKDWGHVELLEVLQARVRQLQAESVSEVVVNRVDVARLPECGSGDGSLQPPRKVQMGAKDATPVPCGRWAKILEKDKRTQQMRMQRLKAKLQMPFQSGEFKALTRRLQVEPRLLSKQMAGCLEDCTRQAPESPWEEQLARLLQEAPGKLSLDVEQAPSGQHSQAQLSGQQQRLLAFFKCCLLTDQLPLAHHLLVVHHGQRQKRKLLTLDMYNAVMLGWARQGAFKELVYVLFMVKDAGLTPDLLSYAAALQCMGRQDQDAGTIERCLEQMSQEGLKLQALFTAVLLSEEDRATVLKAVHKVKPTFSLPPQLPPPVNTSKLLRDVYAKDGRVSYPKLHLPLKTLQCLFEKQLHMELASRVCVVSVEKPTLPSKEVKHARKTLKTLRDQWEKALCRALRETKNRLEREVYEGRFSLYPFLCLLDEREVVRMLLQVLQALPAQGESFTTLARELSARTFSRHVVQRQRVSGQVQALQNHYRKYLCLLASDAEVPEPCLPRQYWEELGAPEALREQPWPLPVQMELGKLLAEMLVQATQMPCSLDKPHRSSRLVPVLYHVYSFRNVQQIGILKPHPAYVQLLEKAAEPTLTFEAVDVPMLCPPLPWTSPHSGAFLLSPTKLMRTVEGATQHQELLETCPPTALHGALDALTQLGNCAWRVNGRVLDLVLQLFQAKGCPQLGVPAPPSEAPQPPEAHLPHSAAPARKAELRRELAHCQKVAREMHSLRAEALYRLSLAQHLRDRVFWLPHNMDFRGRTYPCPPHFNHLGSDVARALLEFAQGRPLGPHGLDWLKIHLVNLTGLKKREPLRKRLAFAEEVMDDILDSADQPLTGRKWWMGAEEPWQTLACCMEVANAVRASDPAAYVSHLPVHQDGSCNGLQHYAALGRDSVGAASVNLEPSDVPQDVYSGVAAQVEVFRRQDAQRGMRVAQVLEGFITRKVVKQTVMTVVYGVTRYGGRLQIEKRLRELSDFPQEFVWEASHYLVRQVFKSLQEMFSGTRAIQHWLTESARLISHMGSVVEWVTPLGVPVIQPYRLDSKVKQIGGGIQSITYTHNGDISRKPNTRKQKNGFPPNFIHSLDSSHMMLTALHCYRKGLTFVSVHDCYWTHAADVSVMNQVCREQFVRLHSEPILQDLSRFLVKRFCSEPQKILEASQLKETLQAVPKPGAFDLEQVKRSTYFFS

SMILES	IC50 [nM]
C[C@@H](Cc1ccc2c(-c3ccc(F)cc3Cl)cc(=O)oc2c1)C(=O)N1CCC[C@H](C(=O)O)C1 [Example 186, (S)-1-((S)-3-(4-(2-chloro-4-fluorophenyl)-2-oxo-2H-chromen-7-yl)-2-methylpropanoyl)piperidine-3-carboxylic acid]	28000
C[C@H](Cc1ccc2c(-c3ccc(F)cc3Cl)cc(=O)oc2c1)C(=O)N1CCC[C@H](C(=O)O)C1 [Example 187, (S)-1-((R)-3-(4-(2-chloro-4-fluorophenyl)-2-oxo-2H-chromen-7-yl)-2-methylpropanoyl)piperidine-3-carboxylic acid]	100
Cc1ccccc1-c1cc(=O)oc2cc(N(C)Cc3ncco3)ccc12 [Example 188, 7-(methyl(oxazol-2-ylmethyl)amino)-4-(o-tolyl)-2H-chromen-2-one]	80
Cc1ccccc1-c1cc(=O)oc2cc(N(C)CC(=O)NS(C)(=O)=O)ccc12 [Example 191, 2-(methyl(2-oxo-4-(o-tolyl)-2H-chromen-7-yl)amino)-N-(methylsulfonyl)acetamide]	7000
Cc1ccccc1-c1cc(=O)oc2cc(NCc3ccnn3C)ccc12 [Example 192, 7-(((1-methyl-1H-pyrazol-5-yl)methyl)amino)-4-(o-tolyl)-2H-chromen-2-one]	2000
Cc1ccccc1-c1cc(=O)oc2cc(N(C)Cc3ccnn3C)ccc12 [Example 193, 7-(methyl((1-methyl-1H-pyrazol-5-yl)methyl)amino)-4-(o-tolyl)-2H-chromen-2-one]	100
CC(C(N)=O)N(C)c1ccc2c(-c3ccccc3)cc(=O)oc2c1 (stereo not shown) [Example 194, 2-(methyl(2-oxo-4-phenyl-2H-chromen-7-yl)amino)propanamide]	300
Cc1ccccc1-c1cc(=O)oc2cc(N(C)C(C)C(N)=O)ccc12 (stereo not shown) [Example 195, 2-(methyl(2-oxo-4-(o-tolyl)-2H-chromen-7-yl)amino)propanamide]	50
CC(=O)NC[C@@H]1CCN(C(=O)c2ccc3c(-c4ccccc4C)cc(=O)oc3c2)C1 [Example 196, (S)—N-((1-(2-oxo-4-(o-tolyl)-2H-chromene-7-carbonyl)pyrrolidin-3-yl)methyl)acetamide]	42000
COCC(Nc1ccc2c(-c3ccccc3C)cc(=O)oc2c1)C(N)=O (stereo not shown) [Example 199, 3-methoxy-2-((2-oxo-4-(o-tolyl)-2H-chromen-7-yl)amino)propanamide]	800
Cc1ccccc1-c1cc(=O)oc2cc(CC(C#N)CO)ccc12 (stereo not shown) [Example 200, 3-hydroxy-2-((2-oxo-4-(o-tolyl)-2H-chromen-7-yl)methyl)propanenitrile]	3000
COCC(C#N)Cc1ccc2c(-c3ccccc3C)cc(=O)oc2c1 (stereo not shown) [Example 201, 3-methoxy-2-((2-oxo-4-(o-tolyl)-2H-chromen-7-yl)methyl)propanenitrile]	2000
COCC(C(N)=O)N(C)c1ccc2c(-c3ccccc3C)cc(=O)oc2c1 (stereo not shown) [Example 202, 3-methoxy-2-(methyl(2-oxo-4-(o-tolyl)-2H-chromen-7-yl)amino)propanamide]	2000
Cc1ccccc1-c1cc(=O)oc2cc(N(C)Cc3ccon3)ccc12 [Example 204, 7-((isoxazol-3-ylmethyl)(methyl)amino)-4-(o-tolyl)-2H-chromen-2-one]	30
CC(=O)N(C)CC1CCN(C(=O)c2ccc3c(-c4ccccc4C)cc(=O)oc3c2)C1 (stereo not shown) [Example 205, N-methyl-N-((1-(2-oxo-4-(o-tolyl)-2H-chromene-7-carbonyl)pyrrolidin-3-yl)methyl)acetamide]	> 100000
Cc1ccccc1-c1cc(=O)oc2cc(N(C)Cc3ccc(=O)[nH]c3)ccc12 [Example 209, 5-((methyl(2-oxo-4-(o-tolyl)-2H-chromen-7-yl)amino)methyl)pyridin-2 (1H)-one]	300
Cc1ccccc1-c1cc(=O)oc2cc(NC(C)(C)C(N)=O)ccc12 [Example 210, 2-methyl-2-((2-oxo-4-(o-tolyl)-2H-chromen-7-yl)amino)propanamide]	3000

SMILES	IC50 [nM]
CC[C@@H](Nc1ccc2c(-c3ccccc3C)cc(=O)oc2c1)C(N)=O [Example 211, (R)-2-((2-oxo-4-(o-tolyl)-2H-chromen-7-yl)amino)butanamide]	1000
CC[C@H](Nc1ccc2c(-c3ccccc3C)cc(=O)oc2c1)C(N)=O [Example 212, (S)-2-((2-oxo-4-(o-tolyl)-2H-chromen-7-yl)amino)butanamide]	600
Cc1ccccc1-c1cc(=O)oc2cc(NC3(C(N)=O)CC3)ccc12 [Example 213, 1-((2-oxo-4-(o-tolyl)-2H-chromen-7-yl)amino)cyclopropane-1-carboxamide]	21000
Cc1ccccc1-c1cc(=O)oc2cc(NCC3(C(=O)O)CC3)ccc12 [Example 216, 1-(((2-oxo-4-(o-tolyl)-2H-chromen-7-yl)amino)methyl)cyclopropane-1-carboxylic acid]	600
Cc1ccccc1-c1cc(=O)oc2cc(N(C)CC3(C(=O)O)CC3)ccc12 [Example 217, 1-((methyl(2-oxo-4-(o-tolyl)-2H-chromen-7-yl)amino)methyl)cyclopropane-1-carboxylic acid]	90
COCCNC(=O)CN(C)c1ccc2c(-c3ccccc3C)cc(=O)oc2c1 [Example 218, N-(2-methoxyethyl)-2-(methyl(2-oxo-4-(o-tolyl)-2H-chromen-7-yl)amino)acetamide]	200
Cc1ccccc1-c1cc(=O)oc2cc(N(C)CC(=O)NCCO)ccc12 [Example 219, N-(2-hydroxyethyl)-2-(methyl(2-oxo-4-(o-tolyl)-2H-chromen-7-yl)amino)acetamide]	200
Cc1ccccc1-c1cc(=O)oc2cc(N(C)CC(=O)NCC(F)(F)F)ccc12 [Example 220, 2-(methyl(2-oxo-4-(o-tolyl)-2H-chromen-7-yl)amino)-N-(2,2,2-trifluoroethyl)acetamide]	100
Cc1ccccc1-c1cc(=O)oc2cc(N(C)CC(=O)NCCN(C)C)ccc12 [Example 221, N-(2-(dimethylamino)ethyl)-2-(methyl(2-oxo-4-(o-tolyl)-2H-chromen-7-yl)amino)acetamide]	2000
Cc1ccccc1-c1cc(=O)oc2cc(CN(C)C(=O)N3CCC[C@@H](C(=O)O)C3)ccc12 [Example 222, (R)-1-(methyl((2-oxo-4-(o-tolyl)-2H-chromen-7-yl)methyl)carbamoyl)piperidine-3-carboxylic acid]	2000
Cc1ccccc1-c1cc(=O)oc2cc(N(C)CC(=O)NCC(=O)O)ccc12 [Example 223, N-methyl-N-(2-oxo-4-(o-tolyl)-2H-chromen-7-yl)glycylglycine]	800
CCOC(=O)[C@@H]1C[C@@H]1c1ccc2c(-c3ccccc3C)cc(=O)oc2c1 [Example 224, ethyl (1R,2S)-2-(2-oxo-4-(o-tolyl)-2H-chromen-7-yl)cyclopropane-1-carboxylate]	300
CCOC(=O)[C@H]1C[C@@H]1c1ccc2c(-c3ccccc3C)cc(=O)oc2c1 [Example 225, ethyl (1S,2S)-2-(2-oxo-4-(o-tolyl)-2H-chromen-7-yl)cyclopropane-1-carboxylate]	700
Cc1ccccc1-c1cc(=O)oc2cc(N(C)[C@@H](C)CC(=O)O)ccc12 [Example 228, (S)-3-(methyl(2-oxo-4-(o-tolyl)-2H-chromen-7-yl)amino)butanoic acid]	200
Cc1ccccc1-c1cc(=O)oc2cc(CN(C)C(=O)C3CCC(C(=O)O)CC3)ccc12 (stereo not shown) [Example 229, 4-(methyl((2-oxo-4-(o-tolyl)-2H-chromen-7-yl)methyl)carbamoyl)cyclohexane-1-carboxylic acid]	100
Cc1ccccc1-c1cc(=O)oc2cc(N(C)[C@H](C)CC(=O)O)ccc12 [Example 230, (R)-3-(methyl(2-oxo-4-(o-tolyl)-2H-chromen-7-yl)amino)butanoic acid]	200
Cc1ccccc1-c1cc(=O)oc2cc(CC(=O)O)ccc12 [Example 233, 2-(2-oxo-4-(o-tolyl)-2H-chromen-7-yl) acetic acid]	5000
